Reference: patent publication US20190060320A1, “MEDICAL USE OF PHARMACEUTICAL COMBINATION OR COMPOSITION” (Boehringer Ingelheim International GmbH, priority 2016, published 2019)

Test: Multicentre, double-blind, placebo-controlled clinical trial of glycaemic and renal effects of linagliptin in patients with type 2 diabetes and albuminuria
Format: in vivo, human
Procedure: A multicentre, double-blind, placebo-controlled clinical trial investigates glycaemic and renal effects of linagliptin in patients with type 2 diabetes, album inuria and estimated GFR ≥30 ml/min/1.73 m2 (with or without renal function impairment).
A total of 360 patients with type 2 diabetes (HbA1c 6.5-10%) and persistent albuminuria (urinary albumin-to-creatinine ratio [UACR] 30-3000 mg/gCr; i.e. micro- or macro-albuminuria) despite stable background (standard-of-care) of single renin-angiotensin system blockade (ARB or ACE inhibitor) are randomised to either linagliptin 5 mg (n=182) or placebo (n=178) for 24 weeks. Primary glycaemic and key secondary renal surrogate endpoints are HbA1c and UACR change from baseline over 24 weeks, respectively.

In the case of `CC#CCn1c(N2CCC[C@@H](N)C2)nc2c1c(=O)n(Cc1nc(C)c3ccccc3n1)c(=O)n2C` [linagliptin, 1-[(4-methyl-quinazolin-2-yl)methyl]-3-methyl-7-(2-butyn-1-yl)-8-(3-(R)-amino-piperidin-1-yl)-xanthine], the “placebo-adjusted gMean for time-weighted average of % change in UCAR from baseline” value (over 24 weeks, linagliptin 5 mg vs placebo, 95% CI −15.0, 3.0, NS) is reported as −6.0%, the “gMean for time-weighted average of % change from baseline in UACR” value (over 24 weeks, linagliptin 5 mg, 95% CI −16.8, −4.7) is reported as −11.0% and the “difference in the changes from baseline vs. placebo in urinary albumin to creatinine ratio (UACR), subgroup on a background of metformin” value (post hoc exploratory subgroup analysis, linagliptin on metformin background (and CKD3, eGFR 30-60) compared to patients without metformin) is reported as “numerically larger difference”. For the same compound, the “placebo-adjusted mean HbA1c change from baseline” value (week 24, linagliptin 5 mg vs placebo, 95% CI −0.78, −0.43, p<0.0001) was −0.60%.
